Target: T1, PFKFB3 (Homo sapiens, UniProt Q16875)
T1 construct: GST (cleaved yes); host or cells: Rosetta cells (bacteria)
Test: PFK-2 kinase activity assay (coupled PPi-PFK assay), recombinant PFKFB3
Format: biochemical
Settings: recombinant PFKFB3, concentration course
Description: Recombinant Protein Expression: PFKFB2, PFKFB1, and PFKFB3 constructs (Origene) were subcloned into GST expression vector. Mutation of PFKFB2 at K174 to G [3], H259 to A [4], and the double mutant were created using Quickchange methodology. All constructs were transformed into Rosetta cells (Milipore), expressed and induced following standard protocol. Bacteria were harvested via centrifugation and pellets resuspended in 10 mL sonication buffer (50 mM TrisHCl pH 7.5, 10% glycerol, 150 mM NaCl, 10 mM Imidazole, 10 uL 1M DTT, and 1 protease inhibitor tablet). Cells were sonicated (power lvl 5, 45 s, 4×, QSonica) at 4° C. and spun 10 krpm for 10 min at 4° C. to collect protein lysate. […] Protein concentration was determined by Nanodrop (Thermo).
The resultant F-2,6-BP levels were determined by pyrophosphate-fructose-6-phosphate phosphotransferase (PPi-PFK) activity. After the preincubation phase, the F-2,6-BP/PFK2 mixture was diluted 10× by 50 mM pH 8.0 Tris assay buffer, supplemented with 5 mM Mg^2+, 0.5 mM PPi and 1 mM F-6-P. The PPi-PFK activity was measured as the rate of NADH oxidation (ε340=6200 M^−1 cm^−1) following the addition of 150 μM NADH to a mixture of excess PPi-PFK, 0.1 μg/mL triosephosphate isomerase, 10 μg/mL glycerol-3-phosphate dehydrogenase, and 0.01 U/mL aldolase. […]

T1 sequence (Q16875 whole entry, species assumed): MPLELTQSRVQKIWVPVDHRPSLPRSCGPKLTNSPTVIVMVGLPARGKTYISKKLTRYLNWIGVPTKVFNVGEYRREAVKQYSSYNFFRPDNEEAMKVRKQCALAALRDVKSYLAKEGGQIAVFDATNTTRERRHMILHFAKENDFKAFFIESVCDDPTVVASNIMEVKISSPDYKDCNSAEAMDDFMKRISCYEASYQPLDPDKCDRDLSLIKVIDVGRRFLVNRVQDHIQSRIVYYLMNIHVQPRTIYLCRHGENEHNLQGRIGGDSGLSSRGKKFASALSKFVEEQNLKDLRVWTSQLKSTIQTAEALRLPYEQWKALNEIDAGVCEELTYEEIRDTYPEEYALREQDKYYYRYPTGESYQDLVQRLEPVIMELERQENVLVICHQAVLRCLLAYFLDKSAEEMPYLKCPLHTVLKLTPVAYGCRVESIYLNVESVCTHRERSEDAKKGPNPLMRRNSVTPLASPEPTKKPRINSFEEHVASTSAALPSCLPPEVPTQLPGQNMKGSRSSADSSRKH

Row | Structure (SMILES) | IC50 [µM]
1 | COc1ccccc1Nc1nnc(S)s1 [B2, 5-[(2-methoxyphenyl)amino]-1,3,4-thiadiazole-2-thiol] | 11.9
2 | O=C(/C=C/c1ccc2ccc(C(F)(F)F)cc2n1)c1ccncc1 [PFK158] | 8.94
